Measurements taken from paper PMC3005002 (Glia, 2011).

Molecular target: T1, NCC69 (HA:NCC69) (Drosophila melanogaster, UniProt Q9VTW8)
T1 sequence (Q9VTW8 1-1171): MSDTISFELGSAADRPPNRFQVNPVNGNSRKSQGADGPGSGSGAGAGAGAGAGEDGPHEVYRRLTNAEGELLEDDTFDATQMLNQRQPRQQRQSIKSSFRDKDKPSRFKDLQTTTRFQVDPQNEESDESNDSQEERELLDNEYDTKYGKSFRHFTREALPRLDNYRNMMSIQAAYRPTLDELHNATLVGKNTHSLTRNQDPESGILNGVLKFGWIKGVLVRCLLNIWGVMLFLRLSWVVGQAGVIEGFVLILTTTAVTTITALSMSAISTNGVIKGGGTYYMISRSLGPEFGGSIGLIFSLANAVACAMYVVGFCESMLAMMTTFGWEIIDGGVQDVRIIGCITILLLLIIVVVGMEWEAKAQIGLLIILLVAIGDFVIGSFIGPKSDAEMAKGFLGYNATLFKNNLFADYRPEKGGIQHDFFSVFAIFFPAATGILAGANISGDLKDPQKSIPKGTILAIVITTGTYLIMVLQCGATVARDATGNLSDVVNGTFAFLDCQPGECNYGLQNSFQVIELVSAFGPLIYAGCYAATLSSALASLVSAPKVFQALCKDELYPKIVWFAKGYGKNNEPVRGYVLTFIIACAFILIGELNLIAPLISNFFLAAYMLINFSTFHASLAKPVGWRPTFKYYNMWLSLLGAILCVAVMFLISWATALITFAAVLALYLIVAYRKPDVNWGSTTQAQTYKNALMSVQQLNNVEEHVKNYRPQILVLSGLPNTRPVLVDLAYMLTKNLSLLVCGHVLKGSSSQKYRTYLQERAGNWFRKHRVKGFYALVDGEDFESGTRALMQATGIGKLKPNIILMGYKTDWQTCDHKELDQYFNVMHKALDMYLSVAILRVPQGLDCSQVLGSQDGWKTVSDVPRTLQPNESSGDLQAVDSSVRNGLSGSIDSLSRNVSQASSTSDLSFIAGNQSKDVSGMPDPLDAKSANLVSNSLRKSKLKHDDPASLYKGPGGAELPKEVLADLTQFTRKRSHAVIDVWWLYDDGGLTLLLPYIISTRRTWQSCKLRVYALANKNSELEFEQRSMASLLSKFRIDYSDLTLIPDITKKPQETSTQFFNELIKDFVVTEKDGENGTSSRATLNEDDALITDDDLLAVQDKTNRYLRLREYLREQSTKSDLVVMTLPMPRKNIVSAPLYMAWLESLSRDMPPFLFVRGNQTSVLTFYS
Assay: […] influx inhibition in stably transfected SL2 cells
Format: cell-based

- Ki: 0.049 µM
Compound: CCCCNc1cc(C(=O)O)cc(S(N)(=O)=O)c1Oc1ccccc1 [bumetanide]
